From PubChem BioAssay (NCI)
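Five concentrations, 48 hours, 96-well plates. TGI marks complete inhibition of growth.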

How the values were obtained:
Assay in all cases: growth of human tumour cells (NCI), 48 h
[1] = test system: RXF 393 renal
[2] = test system: CCRF-CEM leukemia
[3] = test system: OVCAR-3 ovarian
[4] = test system: SK-OV-3 ovarian
[5] = test system: MOLT-4 leukemia
[6] = test system: HS 578T breast
[7] = test system: HT29 colon
[8] = test system: SK-MEL-5 melanoma
[9] = test system: MDA-N
[10] = test system: T-47D breast
[11] = test system: KM12 colon
[12] = test system: UACC-62 melanoma
[13] = test system: HCC-2998 colon
[14] = test system: NCI-H522 lung
[15] = test system: SN12C renal
[16] = test system: TK-10 renal
[17] = test system: HOP-92 NSCLC
[18] = test system: UACC-257 melanoma
[19] = test system: COLO 205 colon
[20] = test system: SF-295 CNS
[21] = test system: NCI-H23 lung
[22] = test system: NCI/ADR-RES ovarian
[23] = test system: A498 renal
[24] = test system: OVCAR-4 ovarian
[25] = test system: MDA-MB-231 breast
[26] = test system: BT-549 breast
[27] = test system: UO-31 renal
[28] = test system: M14 melanoma
[29] = test system: U251 CNS
[30] = test system: OVCAR-8 ovarian
[31] = test system: LOX IMVI melanoma
[32] = test system: OVCAR-5 ovarian
[33] = test system: PC-3 prostate
[34] = test system: SF-539 CNS
[35] = test system: EKVX NSCLC
[36] = test system: HCT-15 colon
[37] = test system: DU-145 prostate
[38] = test system: SW-620 colon
[39] = test system: ACHN renal
[40] = test system: HL-60(TB) leukemia
[41] = test system: SK-MEL-2 melanoma
[42] = test system: CAKI-1 renal
[43] = test system: SR leukemia
[44] = test system: SF-268 CNS
[45] = test system: IGROV1 ovarian
[46] = test system: RPMI-8226 leukemia
[47] = test system: HOP-62 NSCLC
[48] = test system: SK-MEL-28 melanoma
[49] = test system: HCT-116 colon
[50] = test system: MALME-3M melanoma
[51] = test system: 786-0 renal
[52] = test system: MDA-MB-435
[53] = test system: SNB-75 CNS
[54] = test system: MCF7 breast
[55] = test system: NCI-H226 lung
[56] = test system: A549 NSCLC
[57] = test system: SNB-19 CNS
[58] = test system: K-562 leukemia
[59] = test system: NCI-H460 lung

CC1OC(OC2C(Oc3cc(O)c4c(c3)O[C@H](c3ccc(O)cc3)CC4=O)OC(CO)C(O)C2O)C(O)C(O)C1O (stereo partly specified)
TGI [1]: > 100 µM | TGI [2]: > 100 µM | TGI [3]: > 100 µM | TGI [4]: > 100 µM | TGI [5]: > 100 µM | TGI [6]: > 100 µM | TGI [7]: > 100 µM | TGI [8]: > 100 µM | TGI [9]: > 100 µM | TGI [10]: > 100 µM | TGI [11]: > 100 µM | TGI [12]: > 100 µM | TGI [13]: > 100 µM | TGI [14]: > 100 µM | TGI [15]: > 100 µM | TGI [16]: > 100 µM | TGI [17]: > 100 µM | TGI [18]: > 100 µM | TGI [19]: > 100 µM | TGI [20]: > 100 µM | TGI [21]: > 100 µM | TGI [22]: > 100 µM | TGI [23]: > 100 µM | TGI [24]: > 100 µM | TGI [25]: > 100 µM | TGI [26]: > 100 µM | TGI [27]: > 100 µM | TGI [28]: > 100 µM | TGI [29]: > 100 µM | TGI [30]: > 100 µM | TGI [31]: > 100 µM | TGI [32]: > 100 µM | TGI [33]: > 100 µM | TGI [34]: > 100 µM | TGI [35]: > 100 µM | TGI [36]: > 100 µM | TGI [37]: > 100 µM | TGI [38]: > 100 µM | TGI [39]: > 100 µM | TGI [40]: > 100 µM | TGI [41]: > 100 µM | TGI [42]: > 100 µM | TGI [43]: > 100 µM | TGI [44]: > 100 µM | TGI [45]: > 100 µM | TGI [46]: > 100 µM | TGI [47]: > 100 µM | TGI [48]: > 100 µM | TGI [49]: > 100 µM | TGI [50]: > 100 µM | TGI [51]: > 100 µM | TGI [52]: > 100 µM | TGI [53]: > 100 µM | TGI [54]: > 100 µM | TGI [55]: > 100 µM | TGI [56]: > 100 µM

C=C(C)C12CC3CC/C(=N/O)C(C1)C3(N1CCOCC1)C/C2=N/O (stereo unspecified)
TGI [1]: > 100 µM | TGI [2]: > 100 µM | TGI [3]: > 100 µM | TGI [4]: > 100 µM | TGI [5]: > 100 µM | TGI [6]: > 100 µM | TGI [57]: > 100 µM | TGI [7]: > 100 µM | TGI [8]: > 100 µM | TGI [9]: > 100 µM | TGI [10]: > 100 µM | TGI [11]: > 100 µM | TGI [12]: > 100 µM | TGI [13]: > 100 µM | TGI [58]: > 100 µM | TGI [14]: > 100 µM | TGI [15]: > 100 µM | TGI [16]: > 100 µM | TGI [17]: > 100 µM | TGI [18]: > 100 µM | TGI [19]: > 100 µM | TGI [20]: > 100 µM | TGI [21]: > 100 µM | TGI [22]: > 100 µM | TGI [23]: > 100 µM | TGI [24]: > 100 µM | TGI [25]: > 100 µM | TGI [26]: > 100 µM | TGI [27]: > 100 µM | TGI [28]: > 100 µM | TGI [29]: > 100 µM | TGI [30]: > 100 µM | TGI [31]: > 100 µM | TGI [32]: > 100 µM | TGI [33]: > 100 µM | TGI [34]: > 100 µM | TGI [35]: > 100 µM | TGI [36]: > 100 µM | TGI [37]: > 100 µM | TGI [38]: > 100 µM | TGI [39]: > 100 µM | TGI [40]: > 100 µM | TGI [41]: > 100 µM | TGI [59]: > 100 µM | TGI [42]: > 100 µM | TGI [43]: > 100 µM | TGI [44]: > 100 µM | TGI [45]: > 100 µM | TGI [46]: > 100 µM | TGI [47]: > 100 µM | TGI [48]: > 100 µM | TGI [49]: > 100 µM | TGI [50]: > 100 µM | TGI [51]: > 100 µM | TGI [52]: > 100 µM | TGI [53]: > 100 µM | TGI [54]: > 100 µM | TGI [55]: > 100 µM | TGI [56]: > 100 µM

CCOP(=O)(OCC)/C(C#N)=C/c1c[nH]c2ccccc12
TGI [1]: > 100 µM | TGI [3]: > 100 µM | TGI [4]: > 100 µM | TGI [6]: > 100 µM | TGI [57]: > 100 µM | TGI [7]: > 100 µM | TGI [8]: > 100 µM | TGI [9]: > 100 µM | TGI [10]: > 100 µM | TGI [11]: > 100 µM | TGI [12]: > 100 µM | TGI [13]: > 100 µM | TGI [58]: > 100 µM | TGI [14]: > 100 µM | TGI [15]: > 100 µM | TGI [16]: > 100 µM | TGI [17]: > 100 µM | TGI [18]: > 100 µM | TGI [19]: > 100 µM | TGI [20]: > 100 µM | TGI [21]: > 100 µM | TGI [22]: > 100 µM | TGI [23]: > 100 µM | TGI [24]: > 100 µM | TGI [25]: > 100 µM | TGI [26]: > 100 µM | TGI [27]: 77.4 µM | TGI [28]: > 100 µM | TGI [29]: > 100 µM | TGI [30]: > 100 µM | TGI [31]: > 100 µM | TGI [32]: > 100 µM | TGI [33]: > 100 µM | TGI [34]: > 100 µM | TGI [35]: > 100 µM | TGI [36]: > 100 µM | TGI [37]: > 100 µM | TGI [38]: > 100 µM | TGI [39]: > 100 µM | TGI [40]: > 100 µM | TGI [41]: > 100 µM | TGI [59]: > 100 µM | TGI [42]: > 100 µM | TGI [43]: > 100 µM | TGI [44]: > 100 µM | TGI [45]: > 100 µM | TGI [46]: > 100 µM | TGI [47]: > 100 µM | TGI [48]: > 100 µM | TGI [49]: > 100 µM | TGI [50]: > 100 µM | TGI [51]: > 100 µM | TGI [52]: > 100 µM | TGI [53]: > 100 µM | TGI [54]: > 100 µM | TGI [55]: > 100 µM | TGI [56]: > 100 µM

COc1ccc(N2C(=O)CC(c3c[nH]c4ncccc34)C2=O)cc1 (stereo unspecified)
TGI [1]: 42.5 µM | TGI [2]: 16.8 µM | TGI [3]: 36.2 µM | TGI [4]: > 100 µM | TGI [5]: > 41 µM | TGI [6]: > 100 µM | TGI [57]: > 100 µM | TGI [7]: 40.5 µM | TGI [8]: > 100 µM | TGI [9]: 20.1 µM | TGI [10]: 50.4 µM | TGI [11]: > 100 µM | TGI [12]: > 96.4 µM | TGI [13]: > 100 µM | TGI [58]: 24.9 µM | TGI [14]: 24.2 µM | TGI [15]: 35.2 µM | TGI [16]: 19.5 µM | TGI [17]: 36 µM | TGI [18]: 38.5 µM | TGI [19]: 36.5 µM | TGI [20]: > 100 µM | TGI [21]: > 58.4 µM | TGI [22]: > 79.1 µM | TGI [23]: > 100 µM | TGI [24]: 47 µM | TGI [25]: 40.3 µM | TGI [26]: 37.2 µM | TGI [27]: > 100 µM | TGI [28]: 44.9 µM | TGI [29]: > 100 µM | TGI [30]: 42.4 µM | TGI [31]: > 100 µM | TGI [32]: > 100 µM | TGI [33]: > 31.6 µM | TGI [34]: > 65.3 µM | TGI [35]: > 75.6 µM | TGI [36]: 59.3 µM | TGI [37]: > 100 µM | TGI [38]: 40.7 µM | TGI [39]: 43.6 µM | TGI [40]: > 37.4 µM | TGI [41]: > 100 µM | TGI [59]: > 100 µM | TGI [42]: 37.2 µM | TGI [43]: > 20 µM | TGI [44]: > 100 µM | TGI [45]: 44.6 µM | TGI [46]: > 100 µM | TGI [47]: > 100 µM | TGI [48]: > 58.3 µM | TGI [49]: 45.8 µM | TGI [50]: 40.5 µM | TGI [51]: 49.7 µM | TGI [52]: 19.4 µM | TGI [53]: > 100 µM | TGI [54]: > 76.9 µM | TGI [55]: > 100 µM | TGI [56]: > 100 µM
